In the NIST ThermoML archive (doi:10.1016/j.jct.2011.12.010):
Numbers after ± are expanded uncertainties.

Test: Molar enthalpy of transition or fusion
Details: Crystal; Adiabatic calorimetry

Q: With CC(C)(C)Cc1ccccc1 [(2,2-dimethylpropyl)benzene] as the compound, how does the “Molar enthalpy of transition or fusion” value read?
A: The value was 3.676 ± 0.0239 kcal/mol.
